Laboratory results from patent publication US12516058B2, “Small-molecule compounds for controlling endosomal toll-like receptors and therapeutic agent for autoimmune diseases using same” (priority 2020, dated 2026).
“Also recorded” adds a separate entry of the source.

What was measured:
TLR7 = biological target: T1, TLR7 (Mus musculus, UniProt P58681); assay: TNF-α secretion ELISA after TLR7 agonist imiquimod (IMQ) in RAW 264.7 cells; assay type: cell-based; details: SK21 to SK82 at 0.5 μM or 2 μM, Imiquimod 1 μg/ml
T1 construct: endogenous in cells; host or cells: RAW 264.7
T1 sequence (P58681 27-1050): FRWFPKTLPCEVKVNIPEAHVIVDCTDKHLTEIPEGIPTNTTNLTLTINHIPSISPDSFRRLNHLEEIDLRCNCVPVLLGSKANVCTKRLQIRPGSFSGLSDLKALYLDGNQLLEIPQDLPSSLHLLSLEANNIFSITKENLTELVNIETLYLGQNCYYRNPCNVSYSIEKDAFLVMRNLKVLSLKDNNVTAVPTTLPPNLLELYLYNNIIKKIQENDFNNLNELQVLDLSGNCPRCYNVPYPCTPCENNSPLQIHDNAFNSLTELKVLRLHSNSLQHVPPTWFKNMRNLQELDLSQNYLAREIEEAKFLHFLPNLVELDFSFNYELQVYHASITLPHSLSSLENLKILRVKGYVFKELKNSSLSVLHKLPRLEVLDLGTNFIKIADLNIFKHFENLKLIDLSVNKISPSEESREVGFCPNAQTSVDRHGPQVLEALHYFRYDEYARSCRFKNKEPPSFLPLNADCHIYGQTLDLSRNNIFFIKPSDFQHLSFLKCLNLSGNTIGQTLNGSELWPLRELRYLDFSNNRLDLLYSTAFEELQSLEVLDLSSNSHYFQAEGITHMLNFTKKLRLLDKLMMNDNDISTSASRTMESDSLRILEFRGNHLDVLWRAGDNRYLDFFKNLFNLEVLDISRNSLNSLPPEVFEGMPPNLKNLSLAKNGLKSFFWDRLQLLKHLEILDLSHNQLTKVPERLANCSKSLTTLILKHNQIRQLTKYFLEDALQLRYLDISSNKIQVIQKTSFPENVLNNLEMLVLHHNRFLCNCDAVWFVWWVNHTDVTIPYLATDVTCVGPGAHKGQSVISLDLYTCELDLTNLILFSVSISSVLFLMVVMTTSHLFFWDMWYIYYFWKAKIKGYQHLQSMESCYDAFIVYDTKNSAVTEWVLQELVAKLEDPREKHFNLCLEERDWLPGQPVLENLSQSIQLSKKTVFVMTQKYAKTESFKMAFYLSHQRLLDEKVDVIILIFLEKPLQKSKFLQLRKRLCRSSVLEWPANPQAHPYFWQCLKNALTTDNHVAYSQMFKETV
Procedure: (§1) In order to determine the inhibitory activities of the test-ligand, RAW 264.7 cells were pretreated with each candidate compound for 1 hour, then treated with Pam3CSK4 (synthetic triacyl lipopeptide; TLR1/2, Invitrogen), FSL-1 (synthetic diacyl lipoprotein, TLR2/6, 100 ng/ml), lipopolysaccharide (LPS, TLR4, Sigma Aldrich), imiquimod (IMQ, TLR7, Invitrogen), and ODN2395 (type C CpG repeat motif DNA oligo(5′-[…]-3), TLR9, Bioneer) ligand for 4 hours, and treated with poly I:C (I:C repeat motif double-stranded RNA, TLR3, Invitrogen) and TL8-506 (TLR8, Invitrogen) showing delayed reactivity for 24 hours. After activation of TLR, the supernatant was diluted in an appropriate ratio so as to measure within the standard dose range, transferred to a pre-coated 96-well assay plate, and then treated with mouse TNF-alpha secretion level in accordance with the manufacturer's instructions using a mouse-TNF-alpha ELISA-kit (Invitrogen).
(§2) In order to plot the concentration-dependent LC50 curves, treatment with the SK series ligands at different concentrations up to 200 μM (the highest concentration that could be treated within the level of 0.5% DMSO) was performed. Then, cell viability and toxicity response upon treatment with ligands were analyzed by MTT as described in Examples 1-3. Cell viability in each plot was normalized from negative control (100%; no treatment) to positive control (highest concentration of test-ligand), and LC50 was determined by non-linear regression (Graph Pad Prism 7.0). In order to plot the concentration-dependent IC50 curves, pre-treatment with the SK series ligands was performed at different concentrations up to 50 μM (twice the initial concentration). Cell responses mediated by TLR7 and TLR9 (levels of TNF-α secretion) were analyzed by ELISA as described in Examples 1-4. The cytokine level in each plot was normalized from negative control (non-treated) to positive control (treatment with ligand), and IC50 was determined by non-linear regression (Graph Pad Prism 7.0).
(§3) In order to select potential inhibitory molecules against TLR3/TLR7/TLR8/TLR9 activation, first, MTT (3-(4,5-dimethylthiazol-2-yl)-2,5-diphenyltetrazolium bromide) cell viability assay (FIG. 7) was performed upon treatment with a set of ligands from SK21 to SK82 at a concentration of 20 μM and the inhibitory activity thereof was evaluated by an ELISA assay to monitor the level of TNF-α secretion in RAW 264.7 cells. The experimental ligands from SK21 to SK82 were administered at 0.5 μM or 2 μM to the RAW 264.7 cells and stimulated with Imiquimod (TLR7, 1 μg/ml) and OND2395 (TLR9, 0.5 μM).

TLR9 = biological target: T2, TLR9 (Mus musculus, UniProt Q9EQU3); assay: TNF-α secretion ELISA after TLR9 agonist ODN2395 in RAW 264.7 cells; assay type: cell-based; details: SK21 to SK82 at 0.5 μM or 2 μM, ODN2395 0.5 μM
T2 construct: endogenous in cells; host or cells: RAW 264.7
T2 sequence (Q9EQU3 26-1032): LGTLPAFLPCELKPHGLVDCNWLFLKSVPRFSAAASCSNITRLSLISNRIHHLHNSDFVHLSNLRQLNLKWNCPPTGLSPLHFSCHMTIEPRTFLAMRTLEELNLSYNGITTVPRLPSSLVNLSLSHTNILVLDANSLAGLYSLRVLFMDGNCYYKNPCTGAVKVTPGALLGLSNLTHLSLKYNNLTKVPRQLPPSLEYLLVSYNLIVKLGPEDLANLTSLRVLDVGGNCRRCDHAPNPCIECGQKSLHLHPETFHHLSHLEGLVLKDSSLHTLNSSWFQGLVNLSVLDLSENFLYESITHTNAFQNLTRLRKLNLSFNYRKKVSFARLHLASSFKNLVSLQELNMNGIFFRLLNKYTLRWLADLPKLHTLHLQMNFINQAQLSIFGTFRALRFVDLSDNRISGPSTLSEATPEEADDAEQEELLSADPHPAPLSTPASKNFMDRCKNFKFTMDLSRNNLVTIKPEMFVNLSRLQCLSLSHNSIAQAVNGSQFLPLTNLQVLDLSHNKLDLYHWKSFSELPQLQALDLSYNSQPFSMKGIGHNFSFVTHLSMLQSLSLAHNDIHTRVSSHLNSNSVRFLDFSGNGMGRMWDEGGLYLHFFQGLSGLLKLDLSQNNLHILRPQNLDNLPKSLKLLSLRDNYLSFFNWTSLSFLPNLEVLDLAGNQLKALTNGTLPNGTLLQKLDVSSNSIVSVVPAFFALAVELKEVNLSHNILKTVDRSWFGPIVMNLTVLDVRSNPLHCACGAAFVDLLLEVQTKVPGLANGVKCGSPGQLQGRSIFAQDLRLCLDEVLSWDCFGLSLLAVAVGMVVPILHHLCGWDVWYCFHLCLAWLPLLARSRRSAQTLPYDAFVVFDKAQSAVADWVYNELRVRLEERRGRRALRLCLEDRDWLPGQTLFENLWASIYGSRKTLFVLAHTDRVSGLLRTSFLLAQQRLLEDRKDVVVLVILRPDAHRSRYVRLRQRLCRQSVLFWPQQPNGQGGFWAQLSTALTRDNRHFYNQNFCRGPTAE
Procedure: as §1, §2, §3

Row | Structure (SMILES) | inhibitory activity against TLR7 (level of TNF-α secretion) (TLR7) | inhibitory activity against TLR9 (level of TNF-α secretion) (TLR9)
1 | Cc1ccc2c3c(N)c4c(nc3n(CCCN(C)C)c2c1)CCCC4 [SK81, 6-(3-(dimethylamino)propyl)-8-methyl-2,3,4,6-tetrahydro-1H-indolo[2,3-b]quinolin-11-amine] | significant inhibitory activity; also recorded: significantly reduced | significant inhibitory activity; also recorded: significantly reduced
2 | CN(C)CCCn1c2cc(Cl)ccc2c2c(N)c3c(nc21)CCCC3 [SK82, 8-chloro-6-(3-(dimethylamino)propyl)-2,3,4,6-tetrahydro-1H-indolo[2,3-b]quinolin-11-amine] | significant inhibitory activity; also recorded: significantly reduced | significant inhibitory activity; also recorded: significantly reduced
